{"source": "patent US10201516B2", "about": "(The Regents of the University of California, priority 2014, dated 2019)", "key": {"[1]": {"test_system": "H-Ras^G12V-induced tumors", "test": "H-Ras^G12V-induced papilloma in LRIG1cre/ER/LSL-Ras^G12V GEMM", "format": "in vivo, mouse", "settings": "daily treatment (FIG. 7D)", "excerpt": "We first used a papilloma model driven by H- or K-Ras^G12V under the control of a skin stem cell promoter, Lrig1 (FIG. 7C) (Jaks et al., Exp Cell Res 316:1422-1428, 2010; Page et al., Cell Stem Cell 13, 471-482, 2013). In this GEMM, tamoxifen inducible Cre recombinase initiates the expression of oncogenic H- or K-Ras^G12V, and the enforced oncogenic Ras expression disrupts the skin hemeostasis during wound healing and further induces papilloma formations (FIG. 7C).\nLrig1 Cre/ER/LSL Hras and Lrig1 Cre/ER/LSL-Kras^G12D mice have been backcrossed into the FVB/N background over multiple generations to minimize the effects of genetic heterogeneity on tumor development. Cre recombinase was activated in both groups of mice by administering a single dose of 4oht (Tamoxifen), topically applied at 8 weeks of age. On day 7 thereafter, wounding was induced on their backs by cutting a 2 cm incision for papilloma development."}, "[2]": {"settings": "PKC activators, literature; cited from earlier work"}, "PANC1 and PANC2.13": {"test_system": "PANC1 and PANC2.13", "test": "Morphology, viability and proliferating rate of human pancreatic cancer cell lines", "format": "cell-based", "procedure": "(§1) The dead cells were removed, and MTS assay (Promega, G5430) was performed for determining the percentage of viable cells, according to the manufacturer's instructions. DMSO was used as vehicle control and for normalization."}, "CaMKii": {"test_system": "CaMKii", "test": "Western blot of phospho-CaMKii in rescued Rasless MEFs", "format": "cell-based, mouse", "procedure": "Experimental cells were washed twice in ice-cold PBS and lysed in 1% Triton lysis buffer [25 mmol/L Tris pH 7.5, 150 mmol/L NaCl, 1% Triton X-100, 1 mmol/L EDTA, 1 mmol/L EGTA, 20 mmol/L NaF, 1 mmol/L […], and 1 mmol/L DTT] supplemented with a protease inhibitor cocktail (Roche) and cleared by centrifugation. Protein concentrations were determined by the Bio-Rad Protein Assay (Bio-Rad). Equal amounts of protein extracts were resolved using SDS-PAGE (NuPAGE; Invitrogen), transferred to a nitrocellulose membrane, and immunoblotted with primary antibodies indicated, followed by secondary antibodies labeled with either IRDye800 (Rockland) or Alexa Fluor 680 (Molecular Probes) and were visualized using a LI-COR Odyssey scanner. A complete list of primary antibodies is provided in the Extended Experimental Procedures."}, "[3]": {"test_system": "Ras^V12-transformed NIH/3T3 cells", "test": "Drug sensitization assay (MTS cell viability), Ras-transformed NIH/3T3", "format": "cell-based, mouse", "procedure": "as §1"}, "PANC1 or PANC2.13": {"test_system": "PANC1 or PANC2.13", "test": "Established subcutaneous human pancreatic xenograft tumors", "format": "in vivo, mouse", "procedure": "The drug was daily administrated into either NOD-SCID or athymic nude mice by oral gavages (OG) at 1 mg/kg or intraperitoneal (I.P) injection at 0.5 mg/kg. 10% DMSO, 10% cremophor, and 80% saline solutions were used as the solvent and vehicle control."}, "[4]": {"settings": "human pancreatic cancer cells (FIG. 14A right)"}}, "data": [{"smiles": "CC(=O)O[C@@]12C[C@@H](C)[C@@]3(O)C(C=C(CO)C[C@]4(O)C(=O)C(C)=C[C@@H]34)[C@@H]1C2(C)C", "note": "(some centres unmarked) [prostratin, 12-deoxyphorbol-13-acetate]", "values": [{"measurement": "initiation of H-Ras^G12V-induced tumors", "setting": "[1]", "value": "no effects"}, {"measurement": "tumor promotion", "setting": "[2]", "value": "far less potent for tumor promotion"}, {"measurement": "cell morphology", "setting": "PANC1 and PANC2.13; human pancreatic cancer cell lines with mutant K-Ras (FIG. 14A left)", "value": "cell morphological changes phenocopying those observed with knock-down of K-Ras or over-expression of Fzd8"}, {"measurement": "cell viability", "setting": "PANC1 and PANC2.13; [4]", "value": "significantly reduced cell viability"}, {"measurement": "proliferating rate", "setting": "PANC1 and PANC2.13; [4]", "value": "significantly reduced"}, {"measurement": "phospho-CaMKii response", "setting": "CaMKii; Rasless MEFs rescued with H-Ras^V12 (FIG. 13C)", "value": "minimal responses"}, {"measurement": "phospho-CaMKii", "setting": "CaMKii; Rasless MEFs rescued with K-Ras(4B)^V12 (FIG. 13C)", "value": "increased phospho-CaMKii"}, {"measurement": "sensitivity to prostratin (cell viability)", "setting": "[3]; H-Ras^V12 or K-Ras^V12-S181D-transformed NIH/3T3 cells (FIG. 5J)", "value": "but not H-Ras^V12 or K-Ras^V12-S181D, -transformed NIH/3T3 cells, were sensitive to prostratin"}, {"measurement": "cell viability", "setting": "[3]; K-Ras^V12-transformed NIH/3T3 cells (FIG. 5J)", "value": "dramatically reduced cell viability"}, {"measurement": "expression of cleaved caspase 3 in subcutaneous tumors", "setting": "PANC1 or PANC2.13; FIG. 14D", "value": "enhanced expression of cleaved caspase 3"}, {"measurement": "growth rate of established subcutaneous tumors", "setting": "PANC1 or PANC2.13; daily oral treatment from 10 to 14 days post-injection, vs vehicle (FIG. 7A)", "value": "significantly reduced growth rate"}]}]}
